Experiment [1] relates to mouse cancer-bearing model. Conditions: Non-Patent Documents 16 and 17; cited from earlier work.
The target of another experiment is human Pim-1 (Homo sapiens (Human), UniProt P11309). Put plainly: biochemical. Conditions: Ki converted from IC50, purified human Pim-1, Pim2tide substrate, ADP-Glo. It is filed as biochemical. On the technique in general: ADP-Glo first removes unused ATP, then detects ADP through luciferase.
In experiment [2] the test system is cells derived from chronic myelogenous leukemia. The settings on record: Non-Patent Document 15; cited from earlier work.
The test system of another experiment is mouse LN model animals. Conditions: Non-Patent Document 18; cited from earlier work.

Structures are written as SMILES. Read-outs that look alike come from different tables or passages of the source.

Chain of human Pim-1 (P11309 whole entry): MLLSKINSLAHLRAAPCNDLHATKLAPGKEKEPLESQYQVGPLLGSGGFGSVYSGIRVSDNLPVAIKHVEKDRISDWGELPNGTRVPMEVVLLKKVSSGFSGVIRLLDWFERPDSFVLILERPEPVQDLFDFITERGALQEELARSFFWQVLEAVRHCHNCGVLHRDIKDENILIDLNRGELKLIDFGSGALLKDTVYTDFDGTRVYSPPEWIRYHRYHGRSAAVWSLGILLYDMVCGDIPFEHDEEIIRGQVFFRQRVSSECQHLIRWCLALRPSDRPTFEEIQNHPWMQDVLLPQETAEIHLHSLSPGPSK

Regarding `C[C@H]1CN(c2c(NC(=O)c3ccc(F)c(-c4c(F)cccc4F)n3)cnc3c2CC[C@H]3O)C[C@@H](N)[C@@H]1O` [INCB053914], the “tumor growth inhibitory effect” value in experiment [1] was “tumor growth inhibitory effect”. In general, Ki refers to a measure of affinity in units of concentration, obtained from inhibition or displacement. `O=C1NCCN(CCC2CCC(C(=O)O)CC2)c2c1oc1ccc(C(F)(F)F)cc21` (stereo not drawn) [Example 86]: the Ki on human Pim-1 (read-out: hPim1 Ki) amounted to 4.06 nM. Same read-out and setting: the result for `C[C@@H]1CN(CC[C@H]2CC[C@](O)(CO)CC2)c2c(oc3ccc(C(F)(F)F)cc23)C(=O)N1` [Example 2-07] reads 0.136 nM. `O=C1NC2(CC2)CN(CCC2CCC(O)CC2)c2c1oc1ccc(C(F)(F)F)cc21` (stereo not drawn) [Example 125] yielded a Ki at human Pim-1 (hPim1 Ki (nM)) of 0.0592 nM. For `O=C1NCCN(CCC2CCC(O)(C(F)(F)CO)CC2)c2c1oc1ccc(C(F)(F)F)cc21` (single isomer, unassigned) [Example 119], the inhibition constant (Ki) on human Pim-1 (read-out: hPim1 Ki) is 0.144 nM. Still for that read-out and setting: the same measure for `CC1(O)CCC(C(F)(F)CN2CCNC(=O)c3oc4ccc(C(F)(F)F)cc4c32)CC1` (single isomer, unassigned) [Example 148]: 0.114 nM; for `CC(C)(O)C1CCOC(C(F)(F)CN2CCNC(=O)c3oc4ccc(C(F)(F)F)cc4c32)C1` (stereo not drawn) [Example 49]: 0.0389 nM. Still for that read-out and setting: the same measure for `O=C1NCCN(CC(F)(F)C2CC3(CCC2(F)F)OCCO3)c2c1oc1ccc(C(F)(F)F)cc21` (racemic) [Example 55]: 0.115 nM; for `O=C1NCCN(CCC2COCC(CF)O2)c2c1oc1ccc(C(F)(F)F)cc21` (racemic) [Example 134]: 0.753 nM. Turning to `O=C1NC(=O)/C(=C/c2cccc(C(F)(F)F)c2)S1` [SMI-4a], the “growth inhibitory and apoptosis-inducing effects” value in experiment [2] is “growth inhibitory and apoptosis-inducing effects”. For the same compound, in the experiment on mouse LN model animals, the glomerular damage result is “reduce glomerular damage”, the mortality entry is given as “improve mortality” and the urinary albumin/creatinine ratio result is reported as “reduce urinary albumin/creatinine ratio”. Regarding `O=C1NCCN(CCC2CC(O)(CO)CCO2)c2c1oc1ccc(C(F)(F)F)cc21` (stereo not drawn) [Example 4], the Ki on human Pim-1 (read-out: hPim1 Ki) worked out at 0.442 nM. The same measure, in the same setting: the same measure for `COC[C@]1(OC)CC[C@@H](CCN2CCN(C)C(=O)c3oc4ccc(C(F)(F)F)cc4c32)CC1` [Example 2-05]: 13.2 nM. `O=C1NCCN(CC(F)(F)[C@H]2CO[C@@H](CO)CO2)c2c1oc1ccc(C(F)(F)F)cc21` [Example 96]: at human Pim-1 (read-out: hPim1 Ki), the Ki came out at 0.0283 nM. Still for that read-out and setting: the result for `O=C1NCCN(CC(F)(F)C2CCC(CO)CC2)c2c1oc1ccc(C(F)(F)F)cc21` (stereo not drawn) [Example 138] reads 0.0151 nM; that for `O=C1NCCN(CC(F)(F)C2CC(O)(C(F)F)CCO2)c2c1oc1ccc(C(F)(F)F)cc21` (single isomer, unassigned) [Example 53], 0.0921 nM.
